From patent US20260097133A1, “EPIGENETIC EDITING TOOL FOR TARGETING HEPATITIS B VIRUS GENE” (priority 2023, published 2026)

Test system: HBV genome (type A, GenBank: AF305422.1)
Test: Knockdown of HBV markers in transgenic HBV mice
Type: in vivo, mice (C57BL/6-HBV)
Settings: after single administration
Description: Transgenic HBV mice (Beijing Vitalstar Biotechnology Co., Ltd., C57BL/6-HBV, subsequent feeding and testing were completed by Beijing Vitalstar) were used in this validation experiment. The genome of this strain of mice was inserted with a 1.28-fold length HBV genome (type A, GenBank: AF305422.1). […] Therefore, this sgRNA was used to prepare the pharmaceutical composition provided in the present application and perform epigenetic editing in transgenic HBV mice to validate the inhibitory effect of this drug on the expression of integrated HBV genes in an in vivo model.
The composition comprising the mRNA encoding EPIREG (sequence: SEQ ID NO: 1191) and sgRNA numbered D99 (BSG35) (mass ratio of mRNA to sgRNA of 1:1) was delivered to transgenic HBV mice (at a dose of 10 mg/kg) by means of tail vein injection of lipid nanoparticles (LNPs) (LNP preparation reference: https://doi.org/10.1038/s41586-021-03534-y). PBS (200 ul) was injected as a negative control, and the antisense oligonucleotide (ASO) drug Bepirovirsen (GSK3228836, dose of 200 mg/kg) was used as a positive control, which could target all HBV RNAs and thus reduce the expression of HBV antigens. After administration, blood was collected regularly in each group to detect the levels of HBV surface antigen (HBsAg) and core antigen (HBcAg/HBeAg) secreted in serum, and the level of HBV DNA was detected by qPCR. […]

Bepirovirsen [ASO]
persistence of effect on HBV markers: gradually returned to their original levels
